Assay results: patent US9718812B2, “Substituted thiazole or oxazole P2X7 receptor antagonists” (Axxam S.P.A., priority 2014, dated 2017)

Columns and labels:
[1] = target: P2X7 receptor (hP2X7) (Homo sapiens (Human), UniProt Q99572); assay: Screen Quest Fluo-8 No Wash Calcium Assay (Bz-ATP-induced Ca2+ influx, FLIPR TETRA); format: cell-based; details: HEK-293 cells stably transfected with P2X7 receptor, Fluo-8 calcium, Low Divalent Cation Assay Buffer
Experimental: Extracellular binding of Bz-ATP to P2X7 receptor opens the channel and allows Ca2+ influx into the cells. This Ca2+ entry was measured in HEK-293 cells stably transfected with P2X7 receptor using Screen Quest™ Fluo-8 No Wash Calcium Assay Kit (AAt Bioquest®, cat. 36316). Once inside the cell, the lipophilic blocking groups of Fluo-8 are cleaved by non-specific cell esterases, resulting in a negatively-charged fluorescent dye that stays inside cells. Its fluorescence increases upon binding to calcium. When HEK-293/P2X7 cells are stimulated with Bz-ATP, Ca2+ enters the cells and the fluorescence of Fluo-8 NW increases. The dye has an absorption spectrum compatible with excitation at 488 nm by argon laser sources and its emission wavelength is in the range of 515-575 nm.
HEK-293 cells stably transfected with P2X7 receptor were seeded overnight in growth medium at 10,000 to 20,000 cells/well in 384-well plate. 24 hours later, the medium was removed and the cells were pre-loaded at RT for 1 hour with 20 μL/w of Fluo-8 NW. Then 10 μL/w of test compounds and reference antagonist A438079 at 3×-concentration were injected with the […] and the kinetic response over a period of five minutes was monitored.

[2] = target: P2X7 receptor (Homo sapiens (Human), UniProt Q99572); assay: YO-PRO-1 Uptake Assay (large pore form, Bz-ATP stimulated); format: cell-based; details: HEK-293 cells stably transfected with P2X7 receptor; Bz-ATP EC80 (30 μM); 5 μM YO-PRO-1
Sequence of P2X7 receptor (Q99572 whole entry): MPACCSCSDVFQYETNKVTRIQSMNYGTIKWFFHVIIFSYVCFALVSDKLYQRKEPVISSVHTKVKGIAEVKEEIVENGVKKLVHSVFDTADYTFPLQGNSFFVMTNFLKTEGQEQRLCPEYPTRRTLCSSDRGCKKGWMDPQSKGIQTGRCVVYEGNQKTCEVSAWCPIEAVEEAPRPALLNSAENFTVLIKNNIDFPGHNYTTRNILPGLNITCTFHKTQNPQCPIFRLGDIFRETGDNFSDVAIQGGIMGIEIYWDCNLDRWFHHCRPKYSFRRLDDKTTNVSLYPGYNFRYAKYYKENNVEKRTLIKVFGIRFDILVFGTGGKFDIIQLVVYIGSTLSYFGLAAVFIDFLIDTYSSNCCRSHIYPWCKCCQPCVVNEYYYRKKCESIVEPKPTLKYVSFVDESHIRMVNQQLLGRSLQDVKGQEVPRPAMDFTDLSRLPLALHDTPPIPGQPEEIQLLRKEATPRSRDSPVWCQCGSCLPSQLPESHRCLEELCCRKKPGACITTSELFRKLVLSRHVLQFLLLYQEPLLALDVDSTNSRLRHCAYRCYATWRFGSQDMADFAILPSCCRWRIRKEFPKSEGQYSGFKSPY
Excerpt: YO-PRO®-1 is a fluorescent DNA-binding dye with a MW of 374 Da (Molecular Probes®, cat. Y3603). This method is based upon the presumed ability of YO-PRO®-1 to enter through the dilated or “large pore form” of P2X7 receptor and to bind to intracellular DNA whereupon it increases many fold its fluorescence intensity. The dye has an absorption spectrum compatible with excitation at 488 nm by argon laser sources and its emission wavelength is in the range of 515-575 nm. The aim of this assay was to validate the interaction of antagonists with P2X7 receptor using an alternative readout to Ca^2+-sensitive fluorescent dyes.
HEK-293 cells stably transfected with P2X7 receptor were seeded overnight in growth medium at 20,000 cells/well in 384-well plate. 24 hours later, the medium was removed, the cells were washed with Low Divalent Cation Assay Buffer (0.3 mM Ca2+ and 0 mM Mg2+) and then pre-loaded with 20 μL/w of 5 μM YO-PRO®-1 dye. […] fluorescence measurement immediately started. Then, 10 μL/w of test compounds and reference antagonist A438079 at 3×-concentration were injected with the […] and the kinetic response over a period of five minutes was monitored. A second injection of 10 μL/w of 3× Bz-ATP EC80 (30 μM) was performed with the […] and the signal of the emitted fluorescence was recorded for additional 60 minutes. All the experiment was carried out with a Low Divalent Cation Assay Buffer (0.3 mM Ca^2+ and 0 mM Mg^2+).
The effect of the test compounds was measured as percent inhibition vs the reference antagonist and IC50 values were calculated accordingly.

Sequence of P2X7 receptor (hP2X7) (Q99572 whole entry): as above

Row | SMILES | IC50 [1] [nM] | IC50 [2] [nM]
1 | Cc1ncsc1C(CNC(=O)c1c(F)cccc1Cl)N1CCC(F)(F)CC1 (stereo not drawn) [Compound 31, 2-chloro-N-[2-(4,4-difluoropiperidin-1-yl)-2-(4-methyl-1,3-thiazol-5-yl)ethyl]-6-fluorobenzamide] | 31 | 229
2 | O=C(NCC(c1cscn1)N1CCCOCC1)c1c(F)cccc1Cl (stereo not drawn) [Compound 7] | 840 | 1690
3 | O=C(NCC(c1nccs1)N1CCC(F)(F)CC1)c1c(F)cccc1Cl (stereo not drawn) [Compound 2, 2-chloro-N-[2-(4,4-difluoro-piperidin-1-yl)-2-(1,3-thiazol-2-yl)-ethyl]-6-fluoro-benzamide] | 306 | 1300
4 | Cc1cccc(Cl)c1C(=O)NCC(c1cncs1)N1CCC(F)(F)CC1 (stereo not drawn) [Compound 15, 2-chloro-N-[2-(4,4-difluoropiperidin-1-yl)-2-(1,3-thiazol-5-yl)ethyl]-6-methylbenzamide] | 8 | 38
5 | Cc1cccc(C)c1C(=O)NCC(c1scnc1C)N1CCOCC1 (stereo not drawn) [Compound 36, 2,6-dimethyl-N-[2-(4-methyl-1,3-thiazol-5-yl)-2-(morpholin-4-yl)ethyl]benzamide] | 149 | 302
6 | Cc1cccc(C)c1C(=O)NCC(c1cncs1)N1CCc2ccccc2C1 (stereo not drawn) [Compound 18, 2,6-dimethyl-N-[2-(1,2,3,4-tetrahydroisoquinolin-2-yl)-2-(1,3-thiazol-5-yl)ethyl]benzamide] | 90 | 190
7 | O=C(NCC(c1cscn1)N1CCC(F)(F)CC1)c1c(F)cccc1Cl (stereo not drawn) [Compound 4, 2-chloro-N-[2-(4,4-difluoropiperidin-1-yl)-2-(1,3-thiazol-4-yl)ethyl]-6-fluorobenzamide] | 845 | 3300
8 | O=C(NCC(c1cncs1)N1CCC(F)(F)CC1)c1c(F)cccc1Cl (stereo not drawn) [Compound 8, 2-chloro-N-[2-(4,4-difluoro-piperidin-1-yl)-2-(1,3-thiazol-5-yl)ethyl]-6-fluoro-benzamide] | 28 | 389
9 | O=C(NCC(c1cncs1)N1CCC(F)(F)CC1)c1cc(-c2ncc(F)cn2)ccc1Cl (stereo not drawn) [Compound 20, 2-chloro-N-[2-(4,4-difluoropiperidin-1-yl)-2-(1,3-thiazol-5-yl)ethyl]-5-(5-fluoropyrimidin-2-yl)-benzamide] | 34 | 30
10 | O=C(NCC(c1cncs1)N1CCc2ccccc2C1)c1c(F)cccc1Cl (stereo not drawn) [Compound 9, 2-chloro-N-[2-(3,4-dihydro-1H-isoquinolin-2-yl)-2-(1,3-thiazol-5-yl)-ethyl]-6-fluoro-benzamide] | 100 | 464
11 | O=C(NCC(c1cnco1)N1CCOCC1)c1c(F)cccc1Cl (stereo not drawn) [Compound 44, 2-chloro-6-fluoro-N-[2-(morpholin-4-yl)-2-(1,3-oxazol-5-yl)ethyl]benzamide] | 677 | 500
12 | Nc1ccc(Cl)c(C(=O)NCC(c2cncs2)N2CCc3ccccc3C2)c1 (stereo not drawn) [Compound 17, 5-amino-2-chloro-N-[2-(1,2,3,4-tetrahydroisoquinolin-2-yl)-2-(1,3-thiazol-5-yl)ethyl]benzamide] | 136 | 690
13 | O=C(NCC(c1nccs1)N1CCc2ccccc2C1)c1c(F)cccc1Cl (stereo not drawn) [Compound 1, 2-chloro-N-[2-(3,4-dihydro-1H-isoquinolin-2-yl)-2-(1,3-thiazol-2-yl)-ethyl]-6-fluoro-benzamide] | 1020 | 1360
14 | Cc1ncsc1C(CNC(=O)c1cccc2ncccc12)N1CCC(F)(F)CC1 (stereo not drawn) [Compound 33, N-[2-(4,4-difluoropiperidin-1-yl)-2-(4-methyl-1,3-thiazol-5-yl)ethyl]quinoline-5-carboxamide] | 158 | 176
15 | O=C(NCC(c1cncs1)N1CCOCC1)c1c(F)cccc1Cl (stereo not drawn) [Compound 10, 2-chloro-6-fluoro-N(2-(morpholin-4-yl)-2-(thiazol-5-yl)-ethyl)benzamide] | 57 | 57
16 | Cc1cccc(Cl)c1C(=O)NCC(c1cncs1)N1CCOCC1 (stereo not drawn) [Compound 13, 2-chloro-6-methyl-N-[2-(morpholin-4-yl)-2-(1,3-thiazol-5-yl)ethyl]benzamide] | 64 | 271

Other lines, results leading:

Row | IC50 [1] [nM] | IC50 [2] [nM] | SMILES
17 | 68 | 72 | Cc1cccc(Cl)c1C(=O)NCC(c1scnc1C)N1CCOC(c2ccc(F)cc2F)C1 (stereo not drawn) [Compound 100, 2-chloro-N-{2-[2-(2,4-difluorophenyl)morpholin-4-yl]-2-(4-methyl-1,3-thiazol-5-yl)ethyl}-6-methylbenzamide]
18 | 104 | 945 | Cc1cccc(C)c1C(=O)NCC(c1cnco1)N1CCc2ccccc2C1 (stereo not drawn) [Compound 49, 2,6-dimethyl-N-[2-(1,3-oxazol-5-yl)-2-(1,2,3,4-tetrahydroisoquinolin-2-yl)ethyl]benzamide]
19 | 199 | 77 | CCCc1ncc(C(CNC(=O)c2cccc3ncccc23)N2CCC(F)(F)CC2)s1 (stereo not drawn) [Compound 108, N-[2-(4,4-difluoropiperidin-1-yl)-2-(2-propyl-1,3-thiazol-5-yl)ethyl]quinoline-5-carboxamide]
20 | 62 | 48 | CCc1ncc(C(CNC(=O)c2c(F)cccc2Cl)N2CCC(F)(F)CC2)s1 (stereo not drawn) [Compound 85, 2-chloro-N-[2-(4,4-difluoropiperidin-1-yl)-2-(2-ethyl-1,3-thiazol-5-yl)ethyl]-6-fluorobenzamide]
21 | 114 | 42 | Cc1cccc(Cl)c1C(=O)NCC(c1scnc1C)N1CCOC(c2ccc(F)cc2F)C1 (stereo not drawn) [Compound 101, 2-chloro-N-{2-[2-(2,4-difluorophenyl)morpholin-4-yl]-2-(4-methyl-1,3-thiazol-5-yl)ethyl}-6-methylbenzamide]
22 | 292 | 135 | O=C(NCC(c1cnc(C2CCC2)s1)N1CCC(F)(F)CC1)c1cccc2ncccc12 (stereo not drawn) [Compound 105, N-[2-(2-cyclobutyl-1,3-thiazol-5-yl)-2-(4,4-difluoropiperidin-1-yl)ethyl]quinoline-5-carboxamide]
23 | 1020 | 326 | O=C(NCC(c1cnc(C2CCC2)s1)N1CCC(F)(F)CC1)c1cc(-c2ncc(F)cn2)ccc1Cl (stereo not drawn) [Compound 111]
24 | 4970 | 2090 | COc1cccc(C(=O)NCC(c2ocnc2C)N2CCC(F)(F)CC2)c1OC (stereo not drawn) [Compound 50, N-[2-(4,4-difluoropiperidin-1-yl)-2-(4-methyl-1,3-oxazol-5-yl)ethyl]-2,3-dimethoxybenzamide]
25 | 69 | 158 | O=C(NCC(c1cnco1)N1CCC(OCc2ccccc2)CC1)c1c(F)cccc1Cl (stereo not drawn) [Compound 63, N-{2-[4-(benzyloxy)piperidin-1-yl]-2-(1,3-oxazol-5-yl)ethyl}-2-chloro-6-fluorobenzamide]
26 | 541 | 1070 | O=C(NCC(c1cnco1)N1CCc2ccccc2C1)c1c(F)cccc1Cl (stereo not drawn) [Compound 48, 2-chloro-6-fluoro-N-[2-(1,3-oxazol-5-yl)-2-(1,2,3,4-tetrahydroisoquinolin-2-yl)ethyl]benzamide]
27 | 576 | 1110 | Cc1ncc(C(CNC(=O)c2c(F)cccc2Cl)N2CCC(OCc3ccccc3)CC2)s1 (stereo not drawn) [Compound 62, N-{2-[4-(benzyloxy)piperidin-1-yl]-2-(2-methyl-1,3-thiazol-5-yl)ethyl}-2-chloro-6-fluorobenzamide]
28 | 147 | 414 | COc1cccc(C(=O)NCC(c2ocnc2C)N2CCc3ccccc3C2)c1OC (stereo not drawn) [Compound 56, 2,3-dimethoxy-N-[2-(4-methyl-1,3-oxazol-5-yl)-2-(1,2,3,4-tetrahydroisoquinolin-2-yl)ethyl]benzamide]
29 | 101 | 71 | Cc1ncoc1C(CNC(=O)c1cc(-c2ncc(F)cn2)ccc1Cl)N1CCC(F)(F)CC1 (stereo not drawn) [Compound 51, 2-chloro-N-[2-(4,4-difluoropiperidin-1-yl)-2-(4-methyl-1,3-oxazol-5-yl)ethyl]-5-(5-fluoropyrimidin-2-yl)benzamide]
30 | 72 | 53 | Cc1ncsc1C(CNC(=O)c1c(F)cccc1Cl)N1CCOC(c2ccc(F)cc2F)C1 (stereo not drawn) [Compound 91, 2-chloro-N-{2-[2-(2,4-difluorophenyl)morpholin-4-yl]-2-(4-methyl-1,3-thiazol-5-yl)ethyl}-6-fluorobenzamide]
